Experimental data taken from paper PMC12388300, “The Chelating Abilities of Tertiary Amines with N-O-Donors Towards Cu(II) Ions and the Catalytic Properties of the Resulting Complexes” (Molecules, 2025).
Marks after values point to notes of the source that are not given here.

Columns and labels:
[1] = Cyclic voltammetry of the Cu(II)/Cu(I) couple; assay type: physicochemical; details: for ΔE: Epc − Epa; for ΔE / │ia/ic│ / E1/2: PBS pH 7.8; for │ia/ic│: peak current ratio; for E1/2 / Epa / Epc: vs NHE; for E1/2: E1/2=(Epc+Epa)/2; for Epa / Epc: PBS 10 mM, 150 mM NaCl, pH 7.8, 0.25 mM complex
Description: To assess this behavior, the corresponding redox potentials were measured by cyclic voltammetry (CV), offering key insights into the electron-transfer properties of the complexes. The metal ion redox potential should ideally lie between the potential for oxidation (−0.16 V vs. NHE) (Equation (1)) and reduction (0.89 V vs. NHE) of superoxide radicals (Equation (2)).(1) O2∙−→O2+e^− (2) O2∙−+e^−+H^+→H2O2
The key electrochemical parameters extracted from the cyclic voltammograms are summarized in Table 3, highlighting a similar redox behavior of the complexes with both ligands. However, the nature of the anion appears to influence the properties of the mononuclear species formed in situ, compared with the isolated complexes.
Cyclic voltammetry experiments were carried out using a BAS Cell C3 EC-epsilon potentiostat equipped with a conventional three-electrode system consisting of a glassy carbon working electrode (3 mm diameter, geometric surface 7 mm^2), a platinum wire counter electrode (CE), and a silver/silver chloride reference electrode (Ag/AgCl, 3 M KCl). Voltammograms were recorded in phosphate-buffered saline (PBS; 10 mM, 150 mM NaCl, pH 7.8) containing 0.25 mM of the complex. The measurements were performed within a potential window from −600 mV to +400 mV, employing various scan rates (50 mV/s, 100 mV/s, 200 mV/s, 400 mV/s, and 800 mV/s).

[2] = UV–Vis monitoring of complex stability during H2O2 dismutation; assay type: physicochemical; details: complex 200 μM, H2O2 10 mM in BBS 50 mM pH 7.8
Text: The reaction progression was monitored by UV–Vis to gather insights into the stability of the complexes during H2O2 dismutation (Figures S45–S48 in Supplementary Materials). Analyzing the spectra recorded for the systems derived from HL1 and HL5, it is possible to observe changes in the absorption bands. In the case of the mononuclear species containing HL1, the alteration in the absorption band takes place over a comparatively extended period, in agreement with the occurrence of the delay period previously noted. The intensity associated with the π→π * electronic transition progressively diminishes, coinciding with a rise in molecular oxygen generation. Such a trend implies structural reconfiguration within the coordination environment of the complex, which appears necessary to initiate the catalytic event. On the other hand, the characteristic absorption feature vanishes after 4 h as a result of the formation of radical species. The UV–Vis profile of the complex Cu(HL5)(ClO4)2 (Figure S46) undergoes a faster modification.
Figure S46: UV-Vis spectra of Cu(HL5)(ClO4)2 at time 0 (red) and after 7 h (light red). The colours variation represents an increment of 5 min from t=0 to t=15 min, of 15 min from t=15 to t= 45 min and 45 min from t= 45 to t=360 min.
Conditions: [Cu(HL5)(ClO4)2]= 200 uM, [H2O2]=10mM in BBS 50mM pH=7.8. Zoom: temporal trends compared to O2 (red) and Abs (light red) on the maximum absorption at 294 nm.
Figure S47: UV-Vis spectra of Cu2(L1)2(ClO4)2 at time 0 (blue) and after 24 hours (light blue). Every change of colors represents a temporal increase of 90 minutes. Conditions: [Cu2(L1)2(ClO4)2] = 200 µM, [H2O2] = 10 mM in BBS 50 mM, pH = 7.8. Zoom: temporal trends compared to O2 (blue) and Abs (light blue) on the maximum absorption at 288 nm.
Figure S48: UV-Vis spectra of Cu2(L5)2(ClO4)2 at time 0 (dark green) and after 24 hours (light green). Every change of colours represents a temporal increase of 90 minutes. Conditions: [Cu2(L5)2(ClO4)2] = 200 µM, [H2O2] = 10 mM in BBS 50 mM, pH = 7.8. […]

[3] = SOD activity, indirect cytochrome C (CytC) assay, xanthine/xanthine oxidase; assay type: biochemical; details: [CytC] = 10 μM, pH = 7.8; for IC50: CytC assay, [xanthine] = 40 μM, [xanthine oxidase] = 0.0053 U/mL, phosphate buffer 50 mM; for Log (kcat): kcat(O2•−)=kCytC·[CytC]/IC50, kCytC=2.6×10^5 M^−1s^−1
Description: To reduce uncertainty about the actual active species involved in the reaction, the catalytic investigations were made with the isolated species. The ability to catalyze superoxide dismutation was assessed using the indirect cytochrome C-based assay originally introduced by McCord and Fridovich. In this kind of test, the presence of a catalyst with SOD activity, acting as a scavenger for O2^•− and generated via a xanthine/xanthine oxidase system, prevents the electron transfer to cytochrome C (Cyt C) to form […].
(§1) Catalytic measurement assays were conducted using a Varian Cary 100 spectrophotometer with a 3 mL quartz cuvette (1 cm path length) for evaluating SOD-like activity. For the assessment of peroxidase-mimicking activity, a Varian Cary 50 instrument and identical cuvettes were utilized. To monitor the CAT-like activity, a 25 mL vial, equipped with a septum for solution injection, was used as a reactor and connected to a pressure transducer.

[4] = Peroxidase activity: morin oxidation with H2O2; assay type: biochemical; details: after 16 h with H2O2; [Morin] = 0.16 mM, [Catalyst] = 1.6 μM, [H2O2] = 0.01 M, PBS 50 mM, pH 7.8
Description: Since initial antioxidant evaluations were conducted without incorporating oxidizable substrates, it is therefore essential to assess the behavior of the complexes in the presence of organic substrates. To this aim, we employed two distinct categories of model substrate: morin and o-phenylenediamine (OPD). We evaluated the spectral changes during morin oxidation, i.e., absorbance decreases for the substrate (Figure 7 and Figures S50–S53 in the Supporting Materials) and increase for the 2,3-diaminephenazine (DAP), the product of the oxidative degradation of the OPD (Figures S55–S58 in the Supporting Materials).
Figure 7 Residual absorbance of morin at the maximum absorption (390 nm) after reaction of the complexes with H2O2 for 16 h. [Morin] = 0.16 mM, [Catalyst] = 1.6 μM, [H2O2] = 0.01 M, PBS buffer (50 mM), pH 7.8.
Peroxidase activity was evaluated via UV-Vis spectroscopy by monitoring the time-dependent absorbance changes of oxidized substrates in the presence of H₂O₂ and copper complexes. Two substrates were used: morin and o-phenylenediamine (OPD).
For morin, the oxidative degradation (Figure S49) was evidenced by a decrease in absorbance at 390 nm. […]
The reaction kinetics were monitored over 18 hours with spectra collected every 20 minutes (Figures S50–S53). […]
Figure S50: Absorbance variation of the morine, with the complex Cu(HL1)(ClO 4)2. […]

[5] = CAT-like activity: O2 pressure from hydrogen peroxide dismutation; assay type: biochemical; set-up: Rmax: unit not given here; details: [catalyst] = 200 μM, [H2O2] = 20–30 mM in BBS 50 mM, pH = 7.8
Description: The studied catalase-like activity of the complexes was evaluated by measuring the pressure resulting from the oxygen produced during the dismutation of the hydrogen peroxide. For this analysis, a borate-based buffer system (BBS 50 mM, pH 7.8) was utilized to avoid the competitive binding of phosphate anions.
as §1, with “transducer. […]” for “transducer.”
To monitor the CAT-like activity, a 25 mL vial was used as a reactor, connected to a pressure transducer and
a septum for the injection.

SMILES | ΔE [1] [V] | │ia/ic│ [1] | E1/2 [1] [V] | Epa [1] [V] | Epc [1] [V] | time in which the π→π* absorbance feature fades / changes [2] | IC50 [3] [nM] | Log (kcat) [3] | residual absorbance of morin (390 nm) [4] [%] | Time (to maximum O2 production) [5] [min] | O2 generated ([5]; triplicate, ±10% error) [mmol/L] | Rmax ([5]; triplicate, ±10% error)
COc1cccc(CN(Cc2ccccn2)Cc2ccccn2)c1[O-].COc1cccc(CN(Cc2ccccn2)Cc2ccccn2)c1[O-].[Cu+2].[Cu+2].[O-][Cl+3]([O-])([O-])[O-].[O-][Cl+3]([O-])([O-])[O-] [Cu2(L5)2(ClO4)2] | −0.081 | 0.90 | −0.179 | −0.138 | −0.219 | ≤ 90 min | 1280 | 6.31 ^h | 40 | 950 | 7.7 | 0.36
COc1cccc(CN(Cc2ccccn2)Cc2ccccn2)c1O.[Cu+2].[O-][Cl+3]([O-])([O-])[O-].[O-][Cl+3]([O-])([O-])[O-] [Cu(HL5)(ClO4)2] | −0.106 | 0.52 | −0.149 | −0.096 | −0.202 | approximately 60 min | 1040 | 6.41 ^h | 21 | 1300 | 9.8 | –
